Measured values reported in patent US8669256B2, “Substituted thieno[2,3-b]pyrazine compounds as modulators of B-Raf kinase activity” (Merck Sharp & Dohme B.V., priority 2010, dated 2014).

Molecular target: T1, GST-tagged human recombinant active B-Raf (Δ1-415) (Homo sapiens, UniProt P15056)
T1 construct: GST; purchased Upstate/Millipore
Test: B-Raf kinase activity, IMAP coupled assay (B-Raf/MEK1/ERK2, fluorescence polarization)
Assay type: biochemical
Settings: not given
Text: (§1) In another assay the B-Raf kinase activity can be determined by using an IMAP assay (Immobilized Metal Assay for Phosphochemicals-based coupled assay). IMAP is a homogeneous fluorescence polarization (FP) assay based on affinity capture of phosphorylated peptide substrates. IMAP uses fluorescein-labeled peptide substrates that, upon phosphorylation by a protein kinase, bind to so called IMAP nanoparticles, which are derivatized with trivalent metal complexes. Such binding causes a change in the rate of the molecular motion of the peptide, and results in an increase in the FP value observed for the fluorescein label attached to the substrate peptide. In such an assay, B-Raf phosphorylates unactive MEK1. The phosphorylated MEK1 is capable of phosphorylating ERK2, which subsequently phosphorylates the fluorescein-labeled peptide substrate.
Determination of B-Raf Kinase Activity using an IMAP Assay
as §1, with “Inhibition of” for “In another assay the”, “was measured” for “can be determined by”, “Immobilized” for “IMAP assay (Immobilized”, “assay (IMAP).” for “assay).”, “this” for “such an”
Enzymes, substrate and ATP were diluted at all steps in Kinase Reaction buffer (10 mM Tris-HCl, 10 mM MgCl2, 0.01% Tween-20, 0.05% NaN3 pH 7.2, 1 mM DTT). The final volume at the kinase reaction step of the assay in the 384-well plate was 20 μl. The concentrations within brackets are final concentrations in the assay. B-Raf (GST-tagged human recombinant active B-Raf (Δ1-415), Upstate/Millipore; 0.2 U/ml) was pre-incubated with compounds or DMSO (1% final concentration) for 60 minutes at room temperature in the dark. Thereafter, MEK 1 (GST-tagged human recombinant unactive MEK1 (full-length); 64 ng/ml), ERK2 (GST-tagged human recombinant unactive ERK2 (full-length); 600 ng/ml), peptide substrate (Erktide, Molecular Devices; 50 nM) and ATP (50 μM) were added to the wells and the mix was incubated for another 60 minutes at 30° C. in the dark. Then, IMAP progressive binding buffer (75% 1× buffer A, 25% 1× buffer B, 1:900 Progressive Binding Reagent; Molecular Devices) was added followed by an incubation step of 60 minutes at room temperature in the dark. Finally, the FP signal was read on an Envision Multilabel reader (Perkin Elmer).

T1 sequence (P15056 416-766, stated change not applied): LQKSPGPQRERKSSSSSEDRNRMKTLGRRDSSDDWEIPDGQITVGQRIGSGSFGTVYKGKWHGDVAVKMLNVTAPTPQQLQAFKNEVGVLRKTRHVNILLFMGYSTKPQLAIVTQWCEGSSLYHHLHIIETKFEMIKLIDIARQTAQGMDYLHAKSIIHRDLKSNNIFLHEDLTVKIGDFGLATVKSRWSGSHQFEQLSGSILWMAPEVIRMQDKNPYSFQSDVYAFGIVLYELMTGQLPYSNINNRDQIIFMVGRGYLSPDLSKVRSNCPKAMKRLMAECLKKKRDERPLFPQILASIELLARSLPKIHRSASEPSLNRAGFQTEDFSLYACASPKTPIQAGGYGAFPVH

Row | Structure (SMILES) | IC50
1 | Cc1ccc(NC(=O)c2cccc(C(C)(C)C#N)c2)cc1/N=C(\C#N)c1cc2nccnc2s1 [Example 56, (E)-N-(5-(3-(2-cyanopropan-2-yl)benzamido)-2-methylphenyl)thieno[2,3-b]pyrazine-6-carbimidoyl cyanide] | < 100 nM

Same assay, conditions: bounds also given as pIC50 (>6, >7, >8); 60 min pre-incubation with compound, ATP 50 μM; read-out: IC50, B-Raf IMAP assay

Row | IC50 | Structure (SMILES)
2 | < 100 nM | Cc1ccc(NC(=O)c2cccc(C(C)(C)C#N)c2)cc1NC(=O)c1cc2nc(Cl)cnc2s1 [Example 12, 2-chloro-N-(5-(3-(2-cyanopropan-2-yl)benzamido)-2-methylphenyl)thieno[2,3-b]pyrazine-6-carboxamide]
3 | < 100 nM | Cc1ccc(NC(=O)c2cccc(C(C)(C)C#N)c2)cc1NCc1cc2nccnc2s1 [Example 47, 3-(2-cyanopropan-2-yl)-N-(4-methyl-3-(thieno[2,3-b]pyrazin-6-ylmethylamino)phenyl)benzamide]
4 | < 100 nM | CC(C)(C#N)c1cccc(C(=O)Nc2ccc(C#N)c(NC(=O)c3cc4nccnc4s3)c2)c1 [Example 52, N-(2-cyano-5-(3-(2-cyanopropan-2-yl)benzamido)phenyl)thieno[2,3-b]pyrazine-6-carboxamide]
5 | < 100 nM | CCOc1cnc2cc(C(=O)Nc3cc(NC(=O)c4cccc(C(C)(C)C#N)c4)ccc3C)sc2n1 [Example 71, N-(5-(3-(2-cyanopropan-2-yl)benzamido)-2-methylphenyl)-3-ethoxythieno[2,3-b]pyrazine-6-carboxamide]
6 | < 100 nM | CCOc1cnc2sc(C(=O)Nc3cc(NC(=O)c4cccc(C(C)(C)C#N)c4)ccc3C)cc2n1 [Example 76, N-(5-(3-(2-cyanopropan-2-yl)benzamido)-2-methylphenyl)-2-ethoxythieno[2,3-b]pyrazine-6-carboxamide]

Second part, the compound before the results:

Row | Structure (SMILES) | IC50
7 | Cc1ccc(NC(=O)c2cccc(C(C)(C)C#N)c2)cc1NC(=O)c1cc2nc(-c3cncnc3)cnc2s1 [Example 22, N-(5-(3-(2-cyanopropan-2-yl)benzamido)-2-methylphenyl)-2-(pyrimidin-5-yl)thieno[2,3-b]pyrazine-6-carboxamide] | < 10 nM
8 | Cc1ccc(NC(=O)c2cccc(C(C)(C)C#N)c2)cc1NC(=O)c1cc2nc(-c3cnc(N(C)C)nc3)cnc2s1 [Example 23, N-(5-(3-(2-cyanopropan-2-yl)benzamido)-2-methylphenyl)-2-(2-(dimethylamino)pyrimidin-5-yl)thieno[2,3-b]pyrazine-6-carboxamide] | < 100 nM
9 | Cc1ccc(NC(=O)c2ccnc(N(C)C)c2)cc1NC(=O)c1cc2nccnc2s1 [Example 25, N-(5-(2-(dimethylamino)isonicotinamido)-2-methylphenyl)thieno[2,3-b]pyrazine-6-carboxamide] | < 100 nM
10 | Cc1ccc(NC(=O)c2ccc(CN3CCN(C)CC3)c(C(F)(F)F)c2)cc1NC(=O)c1cc2nccnc2s1 [Example 33, N-(2-methyl-5-(4-((4-methylpiperazin-1-yl)methyl)-3-(trifluoromethyl)benzamido)phenyl)thieno[2,3-b]pyrazine-6-carboxamide] | < 100 nM
11 | Cc1ccc(NC(=O)c2cccc(-n3cccn3)c2)cc1NC(=O)c1cc2nccnc2s1 [Example 34, N-(5-(3-(1H-pyrazol-1-yl)benzamido)-2-methylphenyl)thieno[2,3-b]pyrazine-6-carboxamide] | < 100 nM
12 | Cc1ccc(C(=O)Nc2cccc(C(F)(F)F)c2)cc1NC(=O)c1cc2nccnc2s1 [Example 48, N-(2-methyl-5-(3-(trifluoromethyl)phenylcarbamoyl)phenyl)-thieno[2,3-b]pyrazine-6-carboxamide] | < 100 nM
13 | Cc1ccc(NC(=O)c2cccc(-c3ccsc3)c2)cc1NC(=O)c1cc2nccnc2s1 [Example 57, N-(2-methyl-5-(3-(thiophen-3-yl)benzamido)phenyl)thieno[2,3-b]pyrazine-6-carboxamide] | < 100 nM
14 | Cc1ccc(NC(=O)c2cccc(C(C)(C)C#N)c2)cc1NC(=O)c1cc2[nH]c(=O)cnc2s1 [Example 58, N-(5-(3-(2-cyanopropan-2-yl)benzamido)-2-methylphenyl)-2-oxo-1,2-dihydrothieno[2,3-b]pyrazine-6-carboxamide] | < 100 nM
15 | Cc1ccc(NC(=O)c2cccc(C(C)(C)C#N)c2)cc1NC(=O)c1cc2ncc(N(C)C)nc2s1 [Example 60, N-(5-(3-(2-cyanopropan-2-yl)benzamido)-2-methylphenyl)-3-(dimethylamino)thieno[2,3-b]pyrazine-6-carboxamide] | < 10 nM
16 | Cc1ccc(C(=O)Nc2cccc(C(F)(F)F)c2)cc1NC(=O)c1sc2nccnc2c1N [Example 74, 7-amino-N-(2-methyl-5-(3-(trifluoromethyl)phenylcarbamoyl)phenyl)thieno[2,3-b]pyrazine-6-carboxamide] | < 100 nM
